The values below come from the supplement of paper PMC10307832.

Common to all, as to test: relative viability (nuclei count vs DMSO), 5 days (fraction); higher = more cells survive
Compound in the assay “XMD13-2 + Foretinib”: C1CC1C(=O)NC2=NNC3=C2C=CC(=C3)C4=CC(=CC=C4)C(=O)NC5CC5 [XMD13-2] + COc1cc2c(Oc3ccc(NC(=O)C4(C(=O)Nc5ccc(F)cc5)CC4)cc3F)ccnc2cc1OCCCN1CCOCC1 [Foretinib] (partner 0.25 µM)
Summed up:
(§1)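 The day after seeding in 1536-well plates, lung cancer cell lines were treated by pin tool with a single drug, or with a fixed anchor-drug dose together with five library-drug doses (not always all listed) in √10 steps. After 5 days, a combined fix-and-stain solution (final 0.05% Triton X-100, 1% formaldehyde, 1 ug/ml Hoechst) was added. Nuclei counted on 4× images gave relative viability as treated counts over vehicle counts, reported as the median of duplicate plates.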

Compound in the assay “XMD13-2 + Crizotinib”: C1CC1C(=O)NC2=NNC3=C2C=CC(=C3)C4=CC(=CC=C4)C(=O)NC5CC5 [XMD13-2] + C[C@@H](Oc1cc(-c2cnn(C3CCNCC3)c2)cnc1N)c1c(Cl)ccc(F)c1Cl [Crizotinib] (partner 1 µM)
Summed up:
as §1

Compound in the assay “Dasatinib + OSI-027”: Cc1nc(Nc2ncc(C(=O)Nc3c(C)cccc3Cl)s2)cc(N2CCN(CCO)CC2)n1 [Dasatinib] + COc1cccc2cc(-c3nc([C@H]4CC[C@H](C(=O)O)CC4)n4ncnc(N)c34)[nH]c12 [OSI-027] (partner 0.5 µM)
Summed up:
as §1

Compound in the assay “Dasatinib + Tozasertib”: Cc1nc(Nc2ncc(C(=O)Nc3c(C)cccc3Cl)s2)cc(N2CCN(CCO)CC2)n1 [Dasatinib] + Cc1cc(Nc2cc(N3CCN(C)CC3)nc(Sc3ccc(NC(=O)C4CC4)cc3)n2)n[nH]1 [Tozasertib] (partner 0.1 µM)
Summed up: as §1

On to UMC-11, for which the relative viability came to 1.23 with XMD13-2 + Foretinib (first compound 0.05 µM); 1.09 with XMD13-2 + Foretinib (first compound 0.1581 µM); 1 with XMD13-2 + Foretinib (first compound 0.5 µM); 1.08 with XMD13-2 + Foretinib (first compound 1.581 µM); 1.06 with XMD13-2 + Foretinib (first compound 5 µM); 0.58 in the assay with XMD13-2 + Crizotinib (first compound 0.05 µM). Moreover, the relative viability was determined as 0.557 with XMD13-2 + Crizotinib (first compound 0.1581 µM); 0.647 in the assay with XMD13-2 + Crizotinib (first compound 0.5 µM); 0.467 with XMD13-2 + Crizotinib (first compound 1.581 µM); 0.329 with XMD13-2 + Crizotinib (first compound 5 µM); 0.459 in the assay with Dasatinib + OSI-027 (first compound 0.005 µM); 0.375 with Dasatinib + OSI-027 (first compound 0.01581 µM). Also, the relative viability was 0.413 with Dasatinib + OSI-027 (first compound 0.05 µM); 0.329 with Dasatinib + OSI-027 (first compound 0.1581 µM); 0.264 with Dasatinib + OSI-027 (first compound 0.5 µM); 0.196 with Dasatinib + Tozasertib (first compound 0.005 µM); 0.203 in the assay with Dasatinib + Tozasertib (first compound 0.01581 µM); 0.193 with Dasatinib + Tozasertib (first compound 0.05 µM). The relative viability in the assay with Dasatinib + Tozasertib (first compound 0.1581 µM) was determined as 0.184; with Dasatinib + Tozasertib (first compound 0.5 µM), 0.172.
